What all share (assay type): cell-based
One assay deals with T1, STING variants (WT) (Homo sapiens, UniProt Q86WV6).
T1 construct: host or cells: HEK-Blue ISG KO-STING cells (Invivogen, hkb-kostg)
The experiment in a line: SEAP reporter assay in HEK-Blue ISG KO-STING cells transfected with STING WT variant (Method 1). To be noted: 24 h. The text has this:
(§1) Example I: STING Variants (WT & HAQ) Activation by Compounds in HEK-Blue™ ISG KO-STING Cells (Method 1)
(§2) Activation of STING can be determined using a SEAP reporter assay in HEK-Blue™ ISG KO-STING cells (Invivogen, cat #hkb-kostg) transfected with plasmids expressing STING variants (WT & HAQ) (referred to WO2017/175147A1). STING variants (WT & HAQ) vector were constructed based on STING-232H vector (Origene, RC208418). GFP vector (VT2069) was bought from Youbio. The detailed protocol as follows: HEK-Blue™ ISG KO-STING cells were harvest and seeding into 96 well plate, the final cell number was 0.8×10^5 cells/well. Transfections were prepared using Lipofectamine 2000 (Invitrogen, Cat #11668-027) following the manufacturer's instructions (Lipo2000:DNA=1:10), 20 ul of transfection suspension containing 1 ng STING vector was added to cell culture plate and incubated at 37° C., 5% CO2 for 24 h. After 24 hours incubation, compounds were added at proper concentration, and the final DMSO concentration was 0.5%. After 24 h incubation, the supernatant was collected to detect SEAP signal using Great EscAPe SEAP chemiluminescence KIT (Clontech, cat #631738) and cells were collected to detect cell viability using CellTiter-Glo Luminescent Cell Viability Assay (Promega, cat #G7573) following the manufacturer's instructions. The data were described by the ratio of the stimulating signal of compounds to 0.5% DMSO.
In general terms: A reporter such as luciferase makes a cellular process visible.

The next assay has as its target T2, STING variants (HAQ) (Homo sapiens, UniProt Q86WV6, G230A/R293Q/R71H).
T2 construct: host or cells: HEK-Blue ISG KO-STING cells (Invivogen, hkb-kostg)
Put plainly: SEAP reporter assay in HEK-Blue ISG KO-STING cells transfected with STING HAQ variant (Method 1). To be noted: 24 h.
Text: as §1, §2

The target of the next assay is T3, STING (Homo sapiens, UniProt Q86WV6, G230A/H232R/R293Q/R71H).
T3 construct: THP1 was purchased from National Collection of Authenticated Cell Cultures (Cat #TCHu 57); host or cells: THP1
T3 sequence (Q86WV6 whole entry R71H/G230A/H232R/R293Q): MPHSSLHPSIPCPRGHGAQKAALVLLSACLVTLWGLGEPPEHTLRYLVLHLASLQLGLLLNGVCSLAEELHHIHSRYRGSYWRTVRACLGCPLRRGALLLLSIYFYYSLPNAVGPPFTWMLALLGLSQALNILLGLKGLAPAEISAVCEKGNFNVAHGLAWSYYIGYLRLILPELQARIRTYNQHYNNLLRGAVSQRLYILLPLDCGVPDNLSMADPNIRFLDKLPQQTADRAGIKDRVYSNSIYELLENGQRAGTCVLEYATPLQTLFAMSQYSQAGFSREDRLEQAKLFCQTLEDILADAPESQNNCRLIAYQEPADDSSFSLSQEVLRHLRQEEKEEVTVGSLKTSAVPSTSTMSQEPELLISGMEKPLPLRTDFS
The experiment in a line: IFNβ release from THP1 by STING activation (hIFNβ ELISA). The note with it: THP1 cells, 24 h, IFN-β in supernatant; inactive = IFNβ not detected at the maximum concentration of compounds. As to the method:
Example III: Compound Stimulate THP1 to Release IFNβ by STING Activation
In this assay, activation of STING by compounds was evaluated by detecting their ability to stimulate the secretion of IFN-β (interferon-beta) from THP1. THP1 was purchased from National Collection of Authenticated Cell Cultures (Cat #TCHu 57). The top dose of compounds was setted according to their solubility. First, Compounds were 3 times diluted with medium, 8-dose points in total. The final DMSO concentration was 0.2%. THP1 during the logarithmic phase was resuspended to 2×10^6 cells/ml in assay medium. The THP1-cell suspension was dispensed into a 96-well U bottom plate containing 50 ul of compound diluted in medium. After 24 h incubation at 37° C., 5% CO2, the supernatant was collected. The concentration of IFN-β in the supernatant was measured using a human IFNβ ELISA KIT (R&D, DY814-05). The data was fitted with GraphPad Prism or XLfit to calculate EC50 values.
(In general: In an ELISA, binding on a coated surface is turned into a signal by an enzyme label.)

[1] abbreviates: compound concentration 153.2 μM.
[2] abbreviates: compound concentration 127.7 μM.
[3] abbreviates: compound concentration 31.25 μM, SEAP signal ratio to 0.5% DMSO.
Setting [4] is: compound concentration 75.95 μM.
[5] abbreviates: compound concentration 125.3 μM.

What is called EC50 is the concentration giving half of the maximal effect.

T2 sequence (Q86WV6 whole entry R71H/G230A/R293Q): as the sequence (Q86WV6 whole entry R71H/G230A/H232R/R293Q) above, with R232H counted along it

With `CCn1nc(C)cc1C(=O)Nc1nc2cc(C(N)=O)cc3c2n1CC(C)(C)CO3` [Example 27, 1-(1-Ethyl-3-methyl-1H-pyrazole-5-carboxamido)-8,8-dimethyl-8,9-dihydro-7H-6-oxa-2,9a-diazabenzo[cd]azulene-4-carboxamide], the “Fold change related to DMSO control, WT” value on STING variants (WT) (compound concentration 25 μM) is given as 2.37 fold. Further, the “Fold change related to DMSO control, HAQ” value at STING variants (HAQ) (compound concentration 25 μM) came out at 56.43 fold. A half-maximal effect on STING (EC50) was put at 22.1 µM.
On to `CCn1nc(C)cc1C(=O)Nc1nc2cc(C(N)=O)cc3c2n1[C@@H](CCCCNC(=O)OCc1cccnc1)CO3` [Example 18, Pyridin-3-ylmethyl (S)-(4-(7-carbamoyl-2-(1-ethyl-3-methyl-1H-pyrazole-5-carboxamido)-3,4-dihydro-5-oxa-1,2a-diazaacenaphthylen-3-yl)butyl)carbamate], for which the “Fold change related to DMSO control, WT” value at STING variants (WT) (setting [1]) was determined as 1.58 fold. Besides, the “Fold change related to DMSO control, HAQ” value at STING variants (HAQ) (setting [1]) came to 17.64 fold. Besides, the “hIFNβ ELISA (EC50, μM)” value at STING was “inactive”.
As to `CCn1nc(C)cc1C(=O)Nc1nc2cc(C(N)=O)cc3c2n1[C@@H](CCCNC(=O)OCc1cccnc1)CO3` [Example 32, Pyridin-3-ylmethyl (S)-(3-(7-carbamoyl-2-(1-ethyl-3-methyl-1H-pyrazole-5-carboxamido)-3,4-dihydro-5-oxa-1,2a-diazaacenaphthylen-3-yl)propyl)carbamate], on STING variants (WT) (compound concentration 25 μM), the “Fold change related to DMSO control, WT” value turned out to be 1.45 fold. Moreover, the “Fold change related to DMSO control, HAQ” value at STING variants (HAQ) (compound concentration 25 μM) is recorded as 2.88 fold. The “hIFNβ ELISA (EC50, μM)” value at STING is “inactive”.
As for `CCn1nc(C)cc1C(=O)Nc1nc2cc(C(N)=O)cc3c2n1[C@@H](CCCCNC(=O)OCc1ccncc1)CO3` [Example 20, Pyridin-4-ylmethyl (S)-(4-(7-carbamoyl-2-(1-ethyl-3-methyl-1H-pyrazole-5-carboxamido)-3,4-dihydro-5-oxa-1,2a-diazaacenaphthylen-3-yl)butyl)carbamate], the “Fold change related to DMSO control, WT” value at STING variants (WT) (setting [2]) amounted to 1.43 fold. Also, on STING variants (HAQ) (setting [2]), the “Fold change related to DMSO control, HAQ” value turned out to be 16.22 fold. Moreover, the “hIFNβ ELISA (EC50, μM)” value on STING was “inactive”.
Consider `CCn1nc(C)cc1C(=O)Nc1nc2cc(C(N)=O)cc3c2n1[C@@H](CCCNC(=O)OCc1ccccc1)CO3` [Example 1, Benzyl (S)-(3-(7-carbamoyl-2-(1-ethyl-3-methyl-1H-pyrazole-5-carboxamido)-3,4-dihydro-5-oxa-1,2a-diazaacenaphthylen-3-yl)propyl)carbamate], for which, on STING variants (WT) (setting [3]), the “Fold change related to DMSO control, WT” value was found to be 3.08 fold. In addition, the “Fold change related to DMSO control, HAQ” value on STING variants (HAQ) (setting [3]) was determined as 21.49 fold. Further, the “hIFNβ ELISA (EC50, μM)” value on STING was “inactive”.
For the molecule `CCn1nc(C)cc1C(=O)Nc1nc2cc(C(N)=O)cc3c2n1CCO3` [Example 11, 2-(1-Ethyl-3-methyl-1H-pyrazole-5-carboxamido)-3,4-dihydro-5-oxa-1,2a-diazaacenaphthylene-7-carboxamide], the “Fold change related to DMSO control, WT” value on STING variants (WT) (compound concentration 27.9 μM) is 2.26 fold. In addition, on STING variants (HAQ) (compound concentration 27.9 μM), the “Fold change related to DMSO control, HAQ” value turned out to be 4.20 fold. Moreover, at STING, the “hIFNβ ELISA (EC50, μM)” value was “inactive”.
Consider `CCn1nc(C)cc1C(=O)Nc1nc2cc(C(N)=O)cc3c2n1[C@@H](Cc1ccccc1)CO3` [Example 24, (S)-3-Benzyl-2-(1-ethyl-3-methyl-1H-pyrazole-5-carboxamido)-3,4-dihydro-5-oxa-1,2a-diazaacenaphthylene-7-carboxamide], for which the “Fold change related to DMSO control, WT” value at STING variants (WT) (compound concentration 25 μM) turned out to be 2.33 fold. Further, at STING variants (HAQ) (compound concentration 25 μM), the “Fold change related to DMSO control, HAQ” value was 65.85 fold. Further, the “hIFNβ ELISA (EC50, μM)” value on STING is “inactive”.
With `CCn1nc(C)cc1C(=O)Nc1nc2cc(C(N)=O)cc3c2n1[C@@H](CCNC(=O)/C=C/c1ccccc1)CO3` [Example 15, (S)-3-(2-Cinnamamidoethyl)-2-(1-ethyl-3-methyl-1H-pyrazole-5-carboxamido)-3,4-dihydro-5-oxa-1,2a-diazaacenaphthylene-7-carboxamide], the “Fold change related to DMSO control, WT” value on STING variants (WT) (setting [4]) is listed as 3.68 fold. The “Fold change related to DMSO control, HAQ” value at STING variants (HAQ) (setting [4]) stood at 20.00 fold. Moreover, the “hIFNβ ELISA (EC50, μM)” value on STING was “inactive”.
As for `CCn1nc(C)cc1C(=O)Nc1nc2cc(C(N)=O)cc3c2n1[C@@H](CCNC(=O)OCc1cccnc1)CO3` [Example 8, Pyridin-3-ylmethyl (S)-(2-(7-carbamoyl-2-(1-ethyl-3-methyl-1H-pyrazole-5-carboxamido)-3,4-dihydro-5-oxa-1,2a-diazaacenaphthylen-3-yl)ethyl)carbamate], the “Fold change related to DMSO control, WT” value on STING variants (WT) (compound concentration 73.3 μM) is listed as 3.47 fold. The “Fold change related to DMSO control, HAQ” value at STING variants (HAQ) (compound concentration 73.3 μM) came to 13.17 fold. The “hIFNβ ELISA (EC50, μM)” value on STING was “inactive”.
Regarding `CCn1nc(C)cc1C(=O)Nc1nc2cc(C(N)=O)cc3c2n1[C@H](CCCNC(=O)OCc1ccccc1)CO3` [Example 2, Benzyl (R)-(3-(7-carbamoyl-2-(1-ethyl-3-methyl-1H-pyrazole-5-carboxamido)-3,4-dihydro-5-oxa-1,2a-diazaacenaphthylen-3-yl)propyl)carbamate], at STING variants (WT) (compound concentration 77.9 μM), the “Fold change related to DMSO control, WT” value was determined as 2.25 fold. Besides, the “Fold change related to DMSO control, HAQ” value on STING variants (HAQ) (compound concentration 77.9 μM) is listed as 6.46 fold. At STING, the “hIFNβ ELISA (EC50, μM)” value was “inactive”.
In the case of `CCn1nc(C)cc1C(=O)Nc1nc2cc(C(N)=O)cc3c2n1CC1(CC1)O3` [Example 28, 2-(1-Ethyl-3-methyl-1H-pyrazole-5-carboxamido)-3H-5-oxa-1,2a-diazaspiro[acenaphthylene-4,1′-cyclopropan]-1,2a^1(5a),6,8-tetraene-7-carboxamide], the “Fold change related to DMSO control, WT” value at STING variants (WT) (compound concentration 25 μM) stood at 2.34 fold. Moreover, the “Fold change related to DMSO control, HAQ” value on STING variants (HAQ) (compound concentration 25 μM) is recorded as 38.16 fold. The “hIFNβ ELISA (EC50, μM)” value on STING was “inactive”.
In the case of `CC[C@H]1COc2cc(C(N)=O)cc3nc(NC(=O)c4cc(C)nn4CC)n1c23` [Example 26, (S)-3-Ethyl-2-(1-ethyl-3-methyl-1H-pyrazole-5-carboxamido)-3,4-dihydro-5-oxa-1,2a-diazaacenaphthylene-7-carboxamide], the “Fold change related to DMSO control, WT” value on STING variants (WT) (compound concentration 25 μM) amounted to 2.00 fold. Also, the “Fold change related to DMSO control, HAQ” value at STING variants (HAQ) (compound concentration 25 μM) is recorded as 63.91 fold. On STING, this molecule had a concentration giving a half-maximal response (EC50) of 11.4 µM.
For the molecule `CCn1nc(C)cc1C(=O)Nc1nc2cc(C(N)=O)cc3c2n1[C@@H](CCCCNC(=O)OCc1ccccn1)CO3` [Example 19, Pyridin-2-ylmethyl (S)-(4-(7-carbamoyl-2-(1-ethyl-3-methyl-1H-pyrazole-5-carboxamido)-3,4-dihydro-5-oxa-1,2a-diazaacenaphthylen-3-yl)butyl)carbamate], on STING variants (WT) (setting [5]), the “Fold change related to DMSO control, WT” value came to 1.65 fold. Further, the “Fold change related to DMSO control, HAQ” value on STING variants (HAQ) (setting [5]) is recorded as 20.80 fold. Besides, the “hIFNβ ELISA (EC50, μM)” value at STING is “inactive”.
`CCn1nc(C)cc1C(=O)Nc1nc2cc(C(N)=O)cc3c2n1[C@@H](C(C)C)CO3` [Example 25, (S)-2-(1-Ethyl-3-methyl-1H-pyrazole-5-carboxamido)-3-isopropyl-3,4-dihydro-5-oxa-1,2a-diazaacenaphthylene-7-carboxamide]: the “Fold change related to DMSO control, WT” value at STING variants (WT) (compound concentration 25 μM) was found to be 2.24 fold. Besides, the “Fold change related to DMSO control, HAQ” value at STING variants (HAQ) (compound concentration 25 μM) was 56.18 fold. On STING, this molecule displayed a half-maximal effective concentration (EC50) of over 16.7 µM.
As for `CCn1nc(C)cc1C(=O)Nc1nc2cc(C(N)=O)cc3c2n1[C@@H](CCCNC(=O)/C=C/c1ccccc1)CO3` [Example 31, (S)-3-(3-Cinnamamidopropyl)-2-(1-ethyl-3-methyl-1H-pyrazole-5-carboxamido)-3,4-dihydro-5-oxa-1,2a-diazaacenaphthylene-7-carboxamide], at STING variants (WT) (compound concentration 25 μM), the “Fold change related to DMSO control, WT” value was determined as 2.71 fold. Moreover, the “Fold change related to DMSO control, HAQ” value on STING variants (HAQ) (compound concentration 25 μM) is on record as 22.11 fold. For the same molecule, at STING, the “hIFNβ ELISA (EC50, μM)” value is “inactive”.
For `CCn1nc(C)cc1C(=O)Nc1nc2cc(C(N)=O)cc3c2n1[C@@H](C)CCO3` [Example 22, (S)-1-(1-Ethyl-3-methyl-1H-pyrazole-5-carboxamido)-9-methyl-8,9-dihydro-7H-6-oxa-2,9a-diazabenzo[cd]azulene-4-carboxamide], in that order: 3.02 fold, 95.64 fold and “inactive”.

The record behind these values is patent US20240287093A1, “HIGH ACTIVITY STING PROTEIN AGONIST” (ADLAI NORTYE BIOPHARMA CO., LTD., priority 2018, published 2024).
